Patent publication US7256187B2, “Rifamycin C-11 oxime derivatives effective against drug-resistant microbes” (Cumbre Pharmaceuticals Inc., priority 2004, dated 2007)
Values after ≈ are worked out from the molar mass of the structure shown.

How the values were obtained:
Assay type in all cases: cell-based
[1] = system: Staphylococcus aureus ATCC29213; experiment: MIC, microbroth dilution; settings: Staphylococcus aureus ATCC29213, rifS; read-out: Antimicrobial activity (MIC)
[2] = system: Staphylococcus aureus ATCC29213 rpoB^D417Y; experiment: microbe, parasite or virus in culture; settings: Staphylococcus aureus ATCC29213 rpoB^D417Y, rifR; read-out: Antimicrobial activity (MIC)
Description: (§1) Representative compounds were assayed for antimicrobial activity as follows: Minimum Inhibitory Concentrations (“MICs”) were determined by the microbroth dilution method as per NCCLS guidelines (National Committee for Clinical Laboratory Standards. 2000. Methods for dilution antimicrobial susceptibility tests for bacteria that grow aerobically, 5th ed. M7-A5. National Committee for Clinical Laboratory Standards, Wayne, Pa.), except that all growth incubations were conducted at 37° C. Bacterial cultures were tested in the following bacteriological media: S. aureus, S. epidermidis, and E. coli in Cation-Adjusted Mueller-Hinton Broth, S. pneumoniae in THY Broth supplemented with 1 mg/mL catalase under 5% CO2 atmosphere, S. pyogenes in THY Broth, E. faecalis in BHI Broth, H. influenzae in BHI Broth supplemented with 0.75 μL of 1 mg/mL NAD and 150 μL of 1 mg/ml hematin per 5 mL, and M. smegmatis in Middlebrook Broth plus ADC Enrichment.
(§2) S. aureus ATCC 29213 RpoB^H418Y is a rifampin-resistant strain with a mutation in the RpoB gene of RNA polymerase. […] S. aureus EN1252a gyrA^S84L grlA^S80F is a quinolone-resistant strain due to double gene mutations of DNA gyrase and topoisomerase IV.

[3] = system: Staphylococcus aureus ATCC29213 rpoB^H418Y; experiment: microbe, parasite or virus in culture; settings: Staphylococcus aureus ATCC29213 rpoB^H418Y, rifR; read-out: Antimicrobial activity (MIC)
Description: as §1, §2

[4] = system: Staphylococcus aureus EN1252a gyrA^S84L grlA^S80F; experiment: microbe, parasite or virus in culture; settings: Staphylococcus aureus EN1252a gyrA^S84L grlA^S80F, cipR; read-out: Antimicrobial activity (MIC)
Description: as §1, §2

[5] = system: Staphylococcus epidermidis ATCC12228; experiment: MIC, microbroth dilution; settings: Staphylococcus epidermidis ATCC12228, rifS; read-out: Antimicrobial activity (MIC)
[6] = system: Streptococcus pneumoniae ATCC6303; experiment: MIC, microbroth dilution; settings: Streptococcus pneumoniae ATCC6303, rifS; read-out: Antimicrobial activity (MIC)
[7] = system: Streptococcus pyogenes ATCC19615; experiment: MIC, microbroth dilution; settings: Streptococcus pyogenes ATCC19615, rifS; read-out: Antimicrobial activity (MIC)
[8] = system: Enterococcus faecalis ATCC29212; experiment: MIC, microbroth dilution; settings: Enterococcus faecalis ATCC29212, rifS; read-out: Antimicrobial activity (MIC)
[9] = system: Haemophilus influenzae ATCC10211; experiment: MIC, microbroth dilution; settings: Haemophilus influenzae ATCC10211, rifS; read-out: Antimicrobial activity (MIC)
[10] = system: Escherichia coli ATCC25922; experiment: MIC, microbroth dilution; settings: Escherichia coli ATCC25922, rifS; read-out: Antimicrobial activity (MIC)
[11] = system: Mycobacterium smegmatis ATCC700084; experiment: MIC, microbroth dilution; settings: Mycolicibacterium smegmatis; Mycobacterium smegmatis ATCC700084, rifS; read-out: Antimicrobial activity (MIC)

CO[C@H]1/C=C/O[C@@]2(C)Oc3c(C)c(O)c4c(c3/C2=N/OCCN(CCO)CCO)C(=O)C=C(NC(=O)/C(C)=C\C=C\[C@H](C)[C@H](O)[C@@H](C)[C@@H](O)[C@@H](C)[C@H](OC(C)=O)[C@@H]1C)C4=O [Example 20, 11-Deoxy-11-{2-[bis-(2-hydroxy-ethyl)-amino]ethoxyimino}rifamycin S]
MIC [1]: 0.004 to 0.5 µg/mL (≈ 0.00475 to 0.594 µM)
MIC [2]: 0.25 to 32 µg/mL (≈ 0.297 to 38 µM)
MIC [3]: 0.125 to 16 µg/mL (≈ 0.148 to 19 µM)
MIC [4]: 0.004 to 0.5 µg/mL (≈ 0.00475 to 0.594 µM)
MIC [5]: 0.0005 to 0.063 µg/mL (≈ 0.000594 to 0.0748 µM)
MIC [6]: 0.0002 to 0.125 µg/mL (≈ 0.000238 to 0.148 µM)
MIC [7]: 0.0005 to 0.063 µg/mL (≈ 0.000594 to 0.0748 µM)
MIC [8]: 2 to 32 µg/mL (≈ 2.38 to 38 µM)
MIC [9]: 0.03 to 2 µg/mL (≈ 0.0356 to 2.38 µM)
MIC [10]: 0.125 to 8 µg/mL (≈ 0.148 to 9.5 µM)
MIC [11]: 0.5 to 64 µg/mL (≈ 0.594 to 76 µM)

COc1c(N2CCN(/N=C/c3c4c(O)c5c(O)c(C)c6c(c5c3O)/C(=N/O)[C@@](C)(O/C=C/[C@H](OC)[C@@H](C)[C@@H](OC(C)=O)[C@H](C)[C@H](O)[C@H](C)[C@@H](O)[C@@H](C)/C=C/C=C(/C)C(=O)N4)O6)C(C)C2)c(F)cc2c(=O)c(C(=O)O)cn(C3CC3)c12 (mixture of isomers) [Example 40, (R/S)-3-[4-(3-Carboxy-1-cyclopropyl-6-fluoro-8-methoxy-4-oxo-1,4-dihydroquinolin-7-yl)-2-methyl-piperazin-1-yl-aminomethylenyl]-11-deoxy-11-hydroxyiminorifamycin SV]
MIC [1]: 0.004 to 0.5 µg/mL (≈ 0.00359 to 0.449 µM)
MIC [2]: 0.25 to 32 µg/mL (≈ 0.225 to 28.7 µM)
MIC [3]: 0.125 to 16 µg/mL (≈ 0.112 to 14.4 µM)
MIC [4]: 0.004 to 0.5 µg/mL (≈ 0.00359 to 0.449 µM)
MIC [5]: 0.0005 to 0.063 µg/mL (≈ 0.000449 to 0.0566 µM)
MIC [6]: 0.0002 to 0.125 µg/mL (≈ 0.00018 to 0.112 µM)
MIC [7]: 0.0005 to 0.063 µg/mL (≈ 0.000449 to 0.0566 µM)
MIC [8]: 2 to 32 µg/mL (≈ 1.8 to 28.7 µM)
MIC [9]: 0.03 to 2 µg/mL (≈ 0.0269 to 1.8 µM)
MIC [10]: 0.125 to 8 µg/mL (≈ 0.112 to 7.19 µM)
MIC [11]: 0.5 to 64 µg/mL (≈ 0.449 to 57.5 µM)

C=CCO/N=C1/c2c3c(C)c(O)c4c2C(=O)C(N2CCOCC2)=C(NC(=O)/C(C)=C\C=C\[C@H](C)[C@H](O)[C@@H](C)[C@@H](O)[C@@H](C)[C@H](OC(C)=O)[C@H](C)[C@@H](OC)/C=C/O[C@@]1(C)O3)C4=O [Example 36, 11-Deoxy-3-(morpholin-4-yl)-11-allyloxyiminorifamycin S]
MIC [1]: 0.004 to 0.5 µg/mL (≈ 0.00478 to 0.598 µM)
MIC [2]: 0.25 to 32 µg/mL (≈ 0.299 to 38.3 µM)
MIC [3]: 0.125 to 16 µg/mL (≈ 0.15 to 19.1 µM)
MIC [4]: 0.004 to 0.5 µg/mL (≈ 0.00478 to 0.598 µM)
MIC [5]: 0.0005 to 0.063 µg/mL (≈ 0.000598 to 0.0754 µM)
MIC [6]: 0.0002 to 0.125 µg/mL (≈ 0.000239 to 0.15 µM)
MIC [7]: 0.0005 to 0.063 µg/mL (≈ 0.000598 to 0.0754 µM)
MIC [8]: 2 to 32 µg/mL (≈ 2.39 to 38.3 µM)
MIC [9]: 0.03 to 2 µg/mL (≈ 0.0359 to 2.39 µM)
MIC [10]: 0.125 to 8 µg/mL (≈ 0.15 to 9.57 µM)
MIC [11]: 0.5 to 64 µg/mL (≈ 0.598 to 76.6 µM)

CO[C@H]1/C=C/O[C@@]2(C)Oc3c(C)c(O)c4c(c3/C2=N/O)C(=O)C(N2CCOCC2)=C(NC(=O)/C(C)=C\C=C\[C@H](C)[C@H](O)[C@@H](C)[C@@H](O)[C@@H](C)[C@H](OC(C)=O)[C@@H]1C)C4=O [Example 34, 11-Deoxy-3-(morpholin-4-yl)-11-hydroxyiminorifamycin S]
MIC [1]: 0.004 to 0.5 µg/mL (≈ 0.00503 to 0.628 µM)
MIC [2]: 0.25 to 32 µg/mL (≈ 0.314 to 40.2 µM)
MIC [3]: 0.125 to 16 µg/mL (≈ 0.157 to 20.1 µM)
MIC [4]: 0.004 to 0.5 µg/mL (≈ 0.00503 to 0.628 µM)
MIC [5]: 0.0005 to 0.063 µg/mL (≈ 0.000628 to 0.0792 µM)
MIC [6]: 0.0002 to 0.125 µg/mL (≈ 0.000251 to 0.157 µM)
MIC [7]: 0.0005 to 0.063 µg/mL (≈ 0.000628 to 0.0792 µM)
MIC [8]: 2 to 32 µg/mL (≈ 2.51 to 40.2 µM)
MIC [9]: 0.03 to 2 µg/mL (≈ 0.0377 to 2.51 µM)
MIC [10]: 0.125 to 8 µg/mL (≈ 0.157 to 10.1 µM)
MIC [11]: 0.5 to 64 µg/mL (≈ 0.628 to 80.4 µM)

CO[C@H]1/C=C/O[C@@]2(C)Oc3c(C)c(O)c4c(c3/C2=N/OCC(=O)O)C(=O)C(N2CCOCC2)=C(NC(=O)/C(C)=C\C=C\[C@H](C)[C@H](O)[C@@H](C)[C@@H](O)[C@@H](C)[C@H](OC(C)=O)[C@@H]1C)C4=O [Example 28, 11-Deoxy-3-(morpholin-4-yl)-11-(4-carboxymethoxyimino)-rifamycin S]
MIC [1]: 0.004 to 0.5 µg/mL (≈ 0.00468 to 0.586 µM)
MIC [2]: 0.25 to 32 µg/mL (≈ 0.293 to 37.5 µM)
MIC [3]: 0.125 to 16 µg/mL (≈ 0.146 to 18.7 µM)
MIC [4]: 0.004 to 0.5 µg/mL (≈ 0.00468 to 0.586 µM)
MIC [5]: 0.0005 to 0.063 µg/mL (≈ 0.000586 to 0.0738 µM)
MIC [6]: 0.0002 to 0.125 µg/mL (≈ 0.000234 to 0.146 µM)
MIC [7]: 0.0005 to 0.063 µg/mL (≈ 0.000586 to 0.0738 µM)
MIC [8]: 2 to 32 µg/mL (≈ 2.34 to 37.5 µM)
MIC [9]: 0.03 to 2 µg/mL (≈ 0.0351 to 2.34 µM)
MIC [10]: 0.125 to 8 µg/mL (≈ 0.146 to 9.37 µM)
MIC [11]: 0.5 to 64 µg/mL (≈ 0.586 to 74.9 µM)

CO[C@H]1/C=C/O[C@@]2(C)Oc3c(C)c(O)c4c(c3/C2=N/OCCN2CCN(c3ccc(N5C[C@H](CNC(C)=O)OC5=O)cc3F)CC2)C(=O)C=C(NC(=O)/C(C)=C\C=C\[C@H](C)[C@H](O)[C@@H](C)[C@@H](O)[C@@H](C)[C@H](OC(C)=O)[C@@H]1C)C4=O [Example 16]
MIC [1]: 0.004 to 0.5 µg/mL (≈ 0.00373 to 0.466 µM)
MIC [2]: 0.25 to 32 µg/mL (≈ 0.233 to 29.8 µM)
MIC [3]: 0.125 to 16 µg/mL (≈ 0.116 to 14.9 µM)
MIC [4]: 0.004 to 0.5 µg/mL (≈ 0.00373 to 0.466 µM)
MIC [5]: 0.0005 to 0.063 µg/mL (≈ 0.000466 to 0.0587 µM)
MIC [6]: 0.0002 to 0.125 µg/mL (≈ 0.000186 to 0.116 µM)
MIC [7]: 0.0005 to 0.063 µg/mL (≈ 0.000466 to 0.0587 µM)
MIC [8]: 2 to 32 µg/mL (≈ 1.86 to 29.8 µM)
MIC [9]: 0.03 to 2 µg/mL (≈ 0.028 to 1.86 µM)
MIC [10]: 0.125 to 8 µg/mL (≈ 0.116 to 7.45 µM)
MIC [11]: 0.5 to 64 µg/mL (≈ 0.466 to 59.6 µM)
